This experiment addresses T1, human BLT1 receptor (Homo sapiens, UniProt Q15722).
T1 construct: expressed in transfected cells; host or cells: HEK293
The experiment is described as follows: BLT-1 cAMP Assay. The experiment is classed as cell-based. The note with it: HEK293 cells recombinantly expressing human BLT1; antagonist activity vs forskolin 4 μM and LTB4 2 nM; cAMP (CisBio kit). On the procedure:
The ability of compounds to antagonize the human BLT1 receptor was determined using a kit to measure changes in intracellular cyclic AMP levels (cAMP dynamic assay kit, Cisbio Cat. No. 62AM4PEC). […] The cell suspension was centrifuged at 200×g for 10 min and then resuspended in fresh assay medium to a density of 2.5×10^5 cells/mL. […] All subsequent liquid additions were performed using a BIORAPTR (FRD; Beckman Coulter). Next, 5 μL of cell suspension was added and incubated for 20 min. at 37° C. and 5% CO2 in a humidified plastic tray.
The levels of cAMP were detected using the CisBio kit following the manufacturer's instructions: cAMP-d2 vial was reconstituted with distilled water and then diluted accordingly with conjugate & lysis buffer. 5 µL of cAMP-d2 working solution was added to all of the wells of the assay plate. cAMP-Cryptate vial was reconstituted with distilled water and then diluted accordingly with conjugate & lysis buffer. 5 µL of cAMP-Cryptate working solution were added to the assay plate. The assay plate was shaken for 3 minutes and incubated at room temperature for 45 minutes, then read on Perkin Elmer Envision. cAMP standard curve and fit data were plotted using a 4 parameter dose response curve fitting algorithm to fit curve. […] After normalization to treated and untreated controls, the percent effect of signal at each compound concentration was calculated. The plot of percent effect versus the log of compound concentration was fit with a 4-parameter concentration response equation to calculate EC50 values.
T1 sequence (Q15722 whole entry): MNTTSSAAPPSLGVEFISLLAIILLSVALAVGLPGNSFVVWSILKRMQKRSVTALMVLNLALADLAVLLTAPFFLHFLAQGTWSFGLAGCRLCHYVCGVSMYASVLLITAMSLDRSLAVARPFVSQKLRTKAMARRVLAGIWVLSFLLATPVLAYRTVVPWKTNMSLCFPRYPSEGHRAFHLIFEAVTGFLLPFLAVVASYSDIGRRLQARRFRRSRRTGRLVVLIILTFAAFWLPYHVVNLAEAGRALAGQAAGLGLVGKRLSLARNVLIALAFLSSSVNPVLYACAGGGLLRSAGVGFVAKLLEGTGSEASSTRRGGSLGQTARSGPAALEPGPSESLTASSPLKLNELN
Regarding `O=S(=O)(Nc1ncc(F)cc1-c1ccc2c(c1)OC[C@@H](Cc1ccccn1)[C@@H]2O)C(F)(F)F` (single isomer, unassigned) [Example 84, 1,1,1-Trifluoro-N-(5-fluoro-3-((3,4-trans)-4-hydroxy-3-(pyridin-2-ylmethyl)chroman-7-yl)pyridin-2-yl)methanesulfonamide], the EC50 (usually the concentration needed to bring the measured effect to its halfway point) is 1610 nM. The same measure for `O=S(=O)(Nc1ccccc1-c1ccc2c(c1)OCC(Cc1cccnc1)C2O)C(F)(F)F` (racemic) [Example 7, 1,1,1-Trifluoro-N-(2-((3,4-rac-trans)-4-hydroxy-3-(pyridin-3-ylmethyl)chroman-7-yl)phenyl)methanesulfonamide]: 3510 nM; for `O=S(=O)(Nc1ccccc1-c1ccc2c(c1)OC[C@@H](Cc1ccccn1)[C@@H]2O)C(F)(F)F` [Example 55, 1,1,1-trifluoro-N-{2-[(3R,4S)-4-hydroxy-3-(pyridin-2-ylmethyl)-3,4-dihydro-2H-chromen-7-yl]phenyl}-methanesulfonamide]: 2020 nM. `O=S(=O)(Nc1nccnc1-c1ccc2c(c1)OCC(Cc1ccccn1)C2O)C(F)(F)F` (racemic) [Example 74, 1,1,1-Trifluoro-N-(3-((3,4-rac-trans)-4-hydroxy-3-(pyridin-2-ylmethyl)chroman-7-yl)pyrazin-2-yl)methanesulfonamide]: the EC50 came out at 4050 nM. On to `O=S(=O)(Nc1ccccc1-c1ccc2c(c1)OC[C@@H](Cc1ccccn1)[C@@H]2O)C(F)F` (single isomer, unassigned) [Example 81, 1,1-Difluoro-N-(2-((3R,4S or 3S,4R)-4-hydroxy-3-(pyridin-2-ylmethyl)chroman-7-yl)phenyl)methanesulfonamide], for which the EC50 was found to be 15 nM.

`O=S(=O)(Nc1nnc(Cl)cc1-c1ccc2c(c1)OC[C@@H](Cc1ccccn1)[C@@H]2O)C(F)(F)F` (single isomer, unassigned) [Example 91, N-(6-chloro-4-((3S,4R or 3R,4S)-4-hydroxy-3-(pyridin-2-ylmethyl)chroman-7-yl)pyridazin-3-yl)-1,1,1-trifluoromethanesulfonamide]: the EC50 worked out at 2690 nM. The same measure for `O=S(=O)(Nc1ncccc1-c1ccc2c(c1)OC[C@@H](Cc1ccccn1)[C@@H]2O)C(F)(F)F` (single isomer, unassigned) [Example 87, 1,1,1-Trifluoro-N-(3-((3,4-trans)-4-hydroxy-3-(pyridin-2-ylmethyl)chroman-7-yl)pyridin-2-yl)methanesulfonamide]: 239 nM; for `Cc1cccnc1C[C@H]1COc2cc(-c3ccccc3NS(=O)(=O)C(F)(F)F)ccc2[C@@H]1O` (single isomer, unassigned) [Example 60, 1,1,1-Trifluoro-N-(2-{(3,4-trans)-4-hydroxy-3-[(3-methylpyridin-2-yl)methyl]-3,4-dihydro-2H-chromen-7-yl}phenyl)methanesulfonamide]: 269 nM; for `O=S(=O)(Nc1ccccc1-c1ccc2c(c1)OC[C@H](Cc1cn(-c3ccccc3)nn1)[C@H]2O)C(F)(F)F` (racemic) [Example 14, 1,1,1-Trifluoro-N-(2-{(rac-trans)-4-hydroxy-3-[(1-phenyl-1H-1,2,3-triazol-4-yl)methyl]-3,4-dihydro-2H-chromen-7-yl}phenyl)methanesulfonamide]: 101 nM. On to `O=S(=O)(CC(F)(F)F)Nc1ncccc1-c1ccc2c(c1)OC[C@@H](Cc1ccccn1)[C@@H]2O` (single isomer, unassigned) [Example 78, 2,2,2-Trifluoro-N-(3-((3S,4R or 3R,4S)-4-hydroxy-3-(pyridin-2-ylmethyl)chroman-7-yl)pyridin-2-yl)ethanesulfonamide], for which the EC50 came to 1870 nM.

Regarding `O=S(=O)(Nc1ccccc1-c1ccc2c(c1)OC[C@@H](Cc1cccs1)[C@@H]2O)C(F)(F)F` (single isomer, unassigned) [Example 61, 1,1,1-trifluoro-N-{2-[(3R,4S or 3S,4R)-4-hydroxy-3-(thiophen-2-ylmethyl)-3,4-dihydro-2H-chromen-7-yl]phenyl}methanesulfonamide], the half-maximal effective concentration (EC50) turned out to be 1340 nM.

In the case of `CC(c1csc(-c2ccccc2)n1)[C@@H]1COc2cc(-c3ccccc3NS(=O)(=O)C(F)(F)F)ccc2[C@H]1O` (single isomer, unassigned) [Example 97], the EC50 stood at 268 nM. In the case of `O=S(=O)(Nc1ccccc1-c1ccc2c(c1)OC[C@@H](Cc1ccccn1)[C@@H]2O)C(F)F` (single isomer, unassigned) [Example 82, 1,1-Difluoro-N-(2-((3S,4R or 3R,4S)-4-hydroxy-3-(pyridin-2-ylmethyl)chroman-7-yl)phenyl)methanesulfonamide], the EC50 is 119 nM. As to `O=S(=O)(Nc1ccccc1-c1ccc2c(c1)OC[C@@H](Cc1cscn1)[C@@H]2O)C(F)(F)F` (racemic) [Example 32, 1,1,1-trifluoro-N-(2-((3,4-rac-trans)-4-hydroxy-3-(thiazol-4-ylmethyl)chroman-7-yl)phenyl)methanesulfonamide], the EC50 came to 17 nM. Turning to `O=S(=O)(Nc1ccccc1-c1ccc2c(c1)OC[C@H](Cc1cnc(-c3ccccc3)s1)[C@H]2O)C(F)(F)F` (single isomer, unassigned) [Example 43, 1,1,1-Trifluoro-N-(2-((3R,4S or 3S,4R)-4-hydroxy-3-((2-phenylthiazol-5-yl)methyl)chroman-7-yl)phenyl)methanesulfonamide], the concentration giving a half-maximal response (EC50) was 64 nM. As to `CCn1ccc(C[C@H]2COc3cc(-c4ccccc4NS(=O)(=O)C(F)(F)F)ccc3[C@@H]2O)n1` (single isomer, unassigned) [Example 46, N-(2-((3S,4R or 3R,4S)-3-((1-ethyl-1H-pyrazol-3-yl)methyl)-4-hydroxychroman-7-yl)phenyl)-1,1,1-trifluoromethanesulfonamide], the EC50 turned out to be 157 nM. As to `O=S(=O)(Nc1ccccc1-c1ccc2c(c1)OC[C@H](Cc1csc(-c3ccccc3)n1)[C@H]2O)C(F)(F)F` (racemic) [Example 24, 1,1,1-Trifluoro-N-(2-((rac-trans)-4-hydroxy-3-((2-phenylthiazol-4-yl)methyl)chroman-7-yl)phenyl)methanesulfonamide], the 50% effective concentration (EC50) amounted to 329 nM. Then `Cn1nccc1CC1COc2cc(-c3ccccc3NS(=O)(=O)C(F)(F)F)ccc2C1O` (racemic) [Example 13, 1,1,1-Trifluoro-N-(2-((3,4-rac-trans)-4-hydroxy-3-((1-methyl-1H-pyrazol-5-yl)methyl)chroman-7-yl)phenyl)methanesulfonamide], with 185 nM. In the case of `O=S(=O)(Nc1ccccc1-c1ccc2c(c1)OCC(Cc1ccsc1)C2O)C(F)(F)F` (racemic) [Example 8, 1,1,1-Trifluoro-N-(2-((3,4-rac-trans)-4-hydroxy-3-(thiophen-3-ylmethyl)chroman-7-yl)phenyl)methanesulfonamide], the concentration for a half-maximal effect (EC50) amounted to 21 nM. On to `Cn1nc(-c2ccccc2)cc1C[C@H]1COc2cc(-c3ccccc3NS(=O)(=O)C(F)(F)F)ccc2[C@@H]1O` (racemic) [Example 35, 1,1,1-Trifluoro-N-(2-((rac-trans)-4-hydroxy-3-((1-methyl-3-phenyl-1H-pyrazol-5-yl)methyl)chroman-7-yl)phenyl)methanesulfonamide], for which the EC50 amounted to 824 nM. Then `O=S(=O)(CC(F)(F)F)Nc1nccnc1-c1ccc2c(c1)OC[C@@H](Cc1ccccn1)[C@@H]2O` (single isomer, unassigned) [Example 76, 2,2,2-Trifluoro-N-(3-((3,4-trans)-4-hydroxy-3-(pyridin-2-ylmethyl)chroman-7-yl)pyrazin-2-yl)ethanesulfonamide], with 1860 nM.

Turning to `Cc1cnc(C[C@@H]2COc3cc(-c4ccccc4NS(=O)(=O)C(F)(F)F)ccc3[C@H]2O)s1` (single isomer, unassigned) [Example 52, 1,1,1-trifluoro-N-(2-{(3S,4R or 3R,4S)-4-hydroxy-3-[(5-methyl-1,3-thiazol-2-yl)methyl]-3,4-dihydro-2H-chromen-7-yl}phenyl)methanesulfonamide], the EC50 came to 4040 nM. Turning to `O=S(=O)(Nc1ccccc1-c1ccc2c(c1)OC[C@H](Cc1cccs1)[C@H]2O)C(F)(F)F` (single isomer, unassigned) [Example 62, 1,1,1-trifluoro-N-{2-[(3S,4R or 3R,4S)-4-hydroxy-3-(thiophen-2-ylmethyl)-3,4-dihydro-2H-chromen-7-yl]phenyl}methanesulfonamide], the EC50 stood at 23 nM. Turning to `O=S(=O)(Nc1ccccc1-c1ccc2c(c1)OC[C@@H](Cc1cncs1)[C@@H]2O)C(F)(F)F` (racemic) [Example 9, 1,1,1-Trifluoro-N-(2-((3,4-rac-trans)-4-hydroxy-3-(thiazol-5-ylmethyl)chroman-7-yl)phenyl)methanesulfonamide], the EC50 is 269 nM. Then `O=S(=O)(Nc1ccc(F)cc1-c1ccc2c(c1)OC[C@@H](Cc1ccccn1)[C@@H]2O)C(F)(F)F` (single isomer, unassigned) [Example 83, 1,1,1-Trifluoro-N-(4-fluoro-2-((3,4-trans)-4-hydroxy-3-(pyridin-2-ylmethyl)chroman-7-yl)phenyl)methanesulfonamide], with 14 nM.

The record behind these values is patent publication US12264139B2, “Aryl sulfonamides as BLT1 antagonists” (Merck Sharp & Dohme LLC, priority 2015, dated 2025).
